± gives the standard deviation.
Columns and labels:
[1] = chemical recovery into PDMS from spiked human plasma; higher = better extraction; details: pooled human plasma, extraction method: PES with PDMS
[2] = chemical recovery by SPE of plasma after PDMS sampling; higher = better extraction; details: pooled human plasma, extraction method: HLB SPE of plasma after PES
[3] = chemical recovery from spiked human plasma; higher = better extraction; details: pooled human plasma
[4] = extraction method: PES+SPE (3 d PDMS equilibration then HLB SPE)
[5] = extraction method: SPE only (HLB 96-well)
[6] = extraction method: solvent precipitation (ACN + hexane)
[7] = extraction method: SPE only (HLB 96-well), PES comparison experiment
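Wherever chemical recovery by SPE of plasma after PDMS sampling is given: over 400 spiked chemicals quantified by LC-HRMS or GC-HRMS via internal standard calibration, recovery relative to spike mix added to unspiked plasma extract to correct matrix effects.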

SMILES | chemical recovery into PDMS ([1]; equilibration time (d): 1) | chemical recovery into PDMS ([1]; equilibration time (d): 3) | chemical recovery into PDMS ([1]; equilibration time (d): 6) | chemical recovery by SPE of plasma ([2]; equilibration time (d): 6) | chemical recovery by SPE of plasma ([2]; equilibration time (d): 1) | chemical recovery by SPE of plasma ([2]; equilibration time (d): 3) | chemical recovery [3, 4] | chemical recovery [3, 5] | chemical recovery [3, 6] | chemical recovery [3, 7]
c1ccc2c(c1)=c1ccc3c4c(ccc=2c14)=c1ccccc1=3 [Indeno(1,2,3-cd)fluoranthene] | 70.5 ± 4% | 79.7 ± 9.8% | 77.5 ± 5.2% | 0.409 ± 0.71% |  |  |  |  |  | 
Nc1ccccc1Br [2-Bromoaniline] | 6.56 ± 0.99% | 9.84 ± 3% | 5.91 ± 1.3% | 0.431 ± 0.75% | 0.45 ± 0.78% | 1.14 ± 0.62% |  |  |  | 
ClC=C(c1ccc(Cl)cc1)c1ccc(Cl)cc1 [4,4-DDMU] |  | 67.8 ± 4.7% | 62.3 ± 4.6% | 11.5 ± 4.2% | 11.4 ± 8% | 12 ± 2.1% |  |  |  | 
CCCCC(CC)COC(=O)C(C#N)=C(c1ccccc1)c1ccccc1 (stereo not drawn) [Octocrylene] | 62.5 ± 6.4% | 65.5 ± 8% | 65.4 ± 1.9% |  |  |  | 73.7 ± 6% | 2.21 ± 0.76% | 59.8 ± 6.2% | 
CCOC(=O)c1cn2nc(OP(=S)(OCC)OCC)cc2nc1C [Pyrazophos] | 39.1 ± 4.4% | 40.5 ± 2.3% | 40.1 ± 2.1% |  |  |  | 55.7 ± 7.8% | 43 ± 3.4% |  | 40.2 ± 7.4%
CC(=O)O[C@]1(C(C)=O)CC[C@H]2[C@@H]3C[C@H](C)C4=CC(=O)CC[C@]4(C)[C@H]3CC[C@@]21C [Medroxyprogesteroneacetate] | 41.5 ± 4.3% | 46.8 ± 1.9% | 43.4 ± 1.5% |  |  |  |  |  |  | 44.5 ± 8.6%
N#CSCSc1nc2ccccc2s1 [(Benzothiazol-2-ylthio)methyl thiocyanate] | 24.8 ± 3.2% | 11 ± 4% | 13.3 ± 4.5% |  |  |  |  |  |  | 33.5 ± 7.2%
COC(=O)N(C(=O)N1CO[C@@]2(C(=O)OC)Cc3cc(Cl)ccc3C2=N1)c1ccc(OC(F)(F)F)cc1 [Indoxacarb] | 52.6 ± 5.8% | 52 ± 9.1% | 53.2 ± 3.8% |  |  |  |  | 61.3 ± 15% |  | 38.3 ± 8.6%
O=c1[nH]cc(F)c(=O)[nH]1 [5-Fluorouracil] |  | 0.00395 ± 0.0068% |  |  |  |  | 0.502 ± 0.11% | 0.392 ± 0.68% |  | 
O=P1(N(CCCl)CCCl)NCCCO1 (stereo not drawn) [Cyclophosphamide] | 1.55 ± 2.7% | 2.5 ± 4.3% | 6.21 ± 5.4% |  |  |  | 49.6 ± 4.1% | 41 ± 4% | 70.9 ± 3.3% | 55 ± 4.7%
CCCCCCCCCCN(C)C [N,N-Dimethyldecylamine] |  |  | 0.000993 ± 0.0017% |  |  |  |  |  |  | 39.4 ± 7.1%
CC(COc1ccc(Oc2ccccc2)cc1)Oc1ccccn1 (stereo not drawn) [Pyriproxyfen] | 48.2 ± 4.8% | 50.9 ± 6.1% | 49.3 ± 2.8% |  |  |  |  | 39.7 ± 12% |  | 23 ± 4.6%
CC(C)OC(=O)C(C)(C)Oc1ccc(C(=O)c2ccc(Cl)cc2)cc1 [Fenofibrate] | 47.1 ± 4.2% | 50.6 ± 5.3% | 48 ± 3.2% |  |  |  |  |  |  | 31.5 ± 6%
O=S1OC[C@@H]2[C@H](CO1)[C@]1(Cl)C(Cl)=C(Cl)[C@]2(Cl)C1(Cl)Cl (stereo partly drawn) [beta-Endosulfan] | 60.6 ± 7.8% | 77.8 ± 18% | 80.6 ± 18% |  |  |  |  | 3.92 ± 1.1% | 17.7 ± 8.9% | 15.9 ± 3.6%
CC(C)Oc1cc(-n2nc(C(C)(C)C)oc2=O)c(Cl)cc1Cl [Oxadiazone] | 39.1 ± 3.5% | 40.4 ± 3.1% | 37.8 ± 2.7% |  |  |  |  | 43.6 ± 4.8% |  | 34.7 ± 5.2%
COc1cc(Cl)ccc1Oc1ccc(Cl)cc1Cl [Triclosan-methyl] |  |  | 84.6 ± 26% |  |  |  |  | 0.483 ± 0.13% | 22.2 ± 1.1% | 12.2 ± 2.8%
CC(=O)C1(C)CC2=C(CCCC2(C)C)CC1C (stereo not drawn) [ISO E Super] | 33.8 ± 6.6% | 34.9 ± 2.3% | 42.6 ± 7% |  |  |  |  | 2.41 ± 2.6% |  | 
CC(=O)[C@H]1CC[C@H]2[C@@H]3CCC4=CC(=O)CC[C@]4(C)[C@H]3CC[C@]12C [Progesterone] | 47.3 ± 3.5% | 50.6 ± 4.3% | 48.2 ± 0.51% |  |  |  |  |  |  | 45.7 ± 9.4%
O=P(Oc1ccccc1)(Oc1ccccc1)Oc1ccccc1 [Triphenylphosphate] | 41.3 ± 4.4% | 43.5 ± 3.7% | 42 ± 2.9% |  |  |  |  | 57.9 ± 4.8% | 88.1 ± 6.6% | 41.3 ± 5.6%
c1ccc2cc3ccccc3cc2c1 [Anthracene] | 70 ± 4.1% | 79.7 ± 8.8% | 80.6 ± 8% |  |  |  |  |  |  | 17.7 ± 2.9%
COC(=O)N(OC)c1ccccc1COc1ccn(-c2ccc(Cl)cc2)n1 [Pyraclostrobin] | 46.4 ± 5.7% | 47.9 ± 3.8% | 46.6 ± 3.3% |  |  |  | 71.5 ± 8.6% | 48 ± 6.1% |  | 36.9 ± 5%
CC(=O)c1cc(C(C)(C)C)cc2c1CCC2(C)C [Celestolide] | 33.2 ± 0.97% | 37.6 ± 3.8% | 34.7 ± 3.6% |  |  |  |  | 1.5 ± 0.73% | 76.6 ± 27% | 
CC(C)COP(=O)(OCC(C)C)OCC(C)C [Tri-isobutylphosphate] | 37.6 ± 1.3% | 39.9 ± 4.4% | 39.9 ± 2.7% |  |  |  |  |  |  | 31.3 ± 5.5%
CCCCCCCCCCCCCC[N+](C)(C)Cc1ccccc1 [Benzyldimethyltetradecylammonium] |  |  | 0.508 ± 1% |  |  |  |  | 66.8 ± 24% |  | 
CCOC(=O)NCCOc1ccc(Oc2ccccc2)cc1 [Fenoxycarb] | 52.1 ± 2.8% | 54.3 ± 4.4% | 52.2 ± 7.9% |  |  |  |  |  | 72 ± 7.2% | 
c1ccc2cc3c(cc2c1)-c1cccc2cccc-3c12 [Benzo(k)fluoranthene] |  | 92.5 ± 5.6% | 93.8 ± 18% |  |  |  |  | 1.23 ± 0.43% | 50.7 ± 1.6% | 
C[C@@H]1C[C@H]2[C@@H]3CCC4=CC(=O)C=C[C@]4(C)[C@@]3(Cl)[C@@H](O)C[C@]2(C)[C@@]1(OC(=O)c1ccco1)C(=O)CCl [Mometasone fuorate] | 22.4 ± 3% | 29.4 ± 3.4% | 32.6 ± 2.6% |  |  |  |  |  |  | 32.8 ± 7.8%

Reference: the supplement of paper PMC10702517
